Data taken from patent US7348401B2, “Peptides that inhibit complement activation” (priority 2003, dated 2008).
Read-outs that look alike come from different tables or passages of the source.

Columns and labels:
complement component C5 = target: T1, complement component C5 (Homo sapiens, UniProt P01031); experiment: Phage clone binding to C5 and free-peptide competition assay
T1 construct: purchased Advanced Research Technologies
Experimental: Peptides were identified by panning an M13 phage library (New England Biolabs), a random 12mer peptide library with a diversity of 10^11 different peptide structures, against complement component C5. The phage library was panned against C5 using three different methods for immobilizing C5. The binding reactions all contained 2×10^11 phage particles in PBS containing 0.5% BSA and 0.3% Tween 20. The binding reactions were carried out at 25° C. for two hours and then unbound phage were removed by washing 5 times with PBS containing 0.5% BSA and 0.3% Tween20. The phage were eluted by acid (0.2 M Glycine pH 2.2, 1 mg/mL BSA) and immediately neutralized with 1 M Tris pH 9.1. Following elution, recovered phage were amplified in ER2738 E. coli (NEB) and subjected to two more rounds of panning as described above. The methods for immobilizing C5 include directly coating C5 (Advanced Research Technologies) to the surface (1 μg/mL), capturing biotinylated C5 (1 μg/mL) on a neutravidin (Pierce) coated surface, and capturing biotinylated C5a (1 μg/mL) on a neutravidin (Pierce) coated surface. C5 and C5a (Quidel) were biotinylated by incubating with 10 fold molar excess of Sulfo-NHS-LC-LC-Biotin for 2 hours at room temperature at pH 7.4 and then removing excess biotin by gel filtration. A negative selection was performed in the final round against neutravidin for the two latter screening methods. DNA from twenty randomly selected clones from each of the three final libraries was isolated and sequenced.
The binding sites of the peptides were further probed via C5-binding competition assays. Increasing concentrations of each phage clone were incubated for 2 hours with 200 ng of biotinylated C5 in PBS containing 0.5% BSA. The phage bound C5 complex was captured on a neutravidin coated microplate for 20 minutes at room temperature and then washed with PBS containing 0.5% BSA. A peroxidase labeled anti-M13 antibody (Pharmacia) was used to detect the amount of phage bound to C5 with OPD substrate. Competition assays with free peptide were carried out in a similar manner except that one concentration of each phage clone was used which was determined as the concentration giving approximately 50% binding in the previous titration. Free peptide was added to the phage clones at concentrations of 50, 10 and 1 μM and incubated with the biotinylated C5 and the assay was carried out as above.

[1] = system: classical pathway; antibody sensitized sheep erythrocyte cells; experiment: Classical pathway hemolytic assay (RBC hemolysis assay); format: cell-based, human
Experimental: Inhibition of the classical pathway by the peptides was measured using a standard hemolysis assay, which monitors the lysis of sheep erythrocytes as a result of terminal complex formation (see e.g. FIG. 1, FIG. 10). Various concentrations of peptide were incubated with 50 μL pooled human plasma (diluted 1:30 with GVB^++), 5×10^7 antibody sensitized sheep erythrocyte cells, and GVB^++ buffer to a final volume of 200 μL. The reaction was incubated at 37° C. for one hour and centrifuged. The percentage of lysis was determined by measuring the optical density of the supernatant at 414 nm. 100% lysis was determined by the optical density at 414 nm of the supernatant from a control sample consisting of 5×10^7 antibody sensitized sheep erythrocyte cells in water. The percent inhibition was calculated as the (% lysisno peptide−% lysispeptide)/% lysisno peptide×100.

classical pathway = experiment: Classical pathway component assay (immune complex, ELISA for C5a, SC5b-9, C3a); format: biochemical, human; details: for complement inhibiting activity (C5a and SC5b-9 production), alanine scan of Peptide 7: immune complex-classical pathway assay, compared with Peptide 7
Experimental: The inhibition of the classical pathway by the peptides was measured by incubating human plasma in the presence and absence of peptides with an immune complex generated on a surface and then monitoring for the production of complement components C5a, SC5b-9, and C3a. To generate the immune complex, a 10 mg/mL solution of BSA in PBS was incubated at 56° C. for 30 minutes and then used to coat the surface of a microplate by diluting to 50 μg/mL at pH 9.6 and incubating for one hour at 37° C. The plate was washed and then incubated with 18 μg/mL mouse anti-BSA IgG2a (Sigma) for one hour at 37° C. Pooled human plasma with and without various concentrations of peptide were incubated for 30 minutes at 37° C. with the generated immune complex and the reaction was stopped with the addition of EDTA. The plasma samples were then analyzed with commercially available ELISA's for the production of C5a (Pharmingen), SC5b-9 (Quidel), and C3a (Quidel).

alternative pathway = experiment: Alternative activation pathway C.A. membrane assay (ELISA for C5a, SC5b-9, C3a); format: biochemical; details: cellulose acetate hemodialysis membrane, human plasma
Experimental: Inhibition of the alternative pathway by the peptides was determined by incubating pooled human plasma in the presence and absence of various concentrations of peptide with 20 mg of cellulose acetate hemodialysis membrane at 37° C. for one hour. The reaction was stopped with EDTA and then the samples were analyzed with commercially available ELISA's for the production of C5a (Pharmingen), SC5b-9 (Quidel), and C3a (Quidel).

[2] = system: complement system activated by zymosan; experiment: Alternative activation pathway zymosan assay (ELISA for C5a, SC5b-9, C3a); format: biochemical; details: 2 mg/mL zymosan, human plasma
Experimental: The peptides were evaluated for involvement in activation of the complement system by the presence of zymosan. Zymosan, or yeast cell wall, has largely been described as an alternative pathway activator. In addition, there are sugars on the surface of the yeast cell wall which are capable of activating the lectin pathway. Therefore, zymosan can be considered as a general complement activator.
Varying concentrations of peptide were incubated with 2 mg/mL zymosan in pooled human plasma. The reactions were incubated at 37° C. for one hour and then stopped by the addition of EDTA. The samples were centrifuged, the plasma removed, and analyzed with commercially available ELISA's for the production of C5a (Pharmingen), SC5b-9 (Quidel), and C3a (Quidel).

[3] = classical pathway, immune complex, human plasma

T1 sequence (P01031 19-1676): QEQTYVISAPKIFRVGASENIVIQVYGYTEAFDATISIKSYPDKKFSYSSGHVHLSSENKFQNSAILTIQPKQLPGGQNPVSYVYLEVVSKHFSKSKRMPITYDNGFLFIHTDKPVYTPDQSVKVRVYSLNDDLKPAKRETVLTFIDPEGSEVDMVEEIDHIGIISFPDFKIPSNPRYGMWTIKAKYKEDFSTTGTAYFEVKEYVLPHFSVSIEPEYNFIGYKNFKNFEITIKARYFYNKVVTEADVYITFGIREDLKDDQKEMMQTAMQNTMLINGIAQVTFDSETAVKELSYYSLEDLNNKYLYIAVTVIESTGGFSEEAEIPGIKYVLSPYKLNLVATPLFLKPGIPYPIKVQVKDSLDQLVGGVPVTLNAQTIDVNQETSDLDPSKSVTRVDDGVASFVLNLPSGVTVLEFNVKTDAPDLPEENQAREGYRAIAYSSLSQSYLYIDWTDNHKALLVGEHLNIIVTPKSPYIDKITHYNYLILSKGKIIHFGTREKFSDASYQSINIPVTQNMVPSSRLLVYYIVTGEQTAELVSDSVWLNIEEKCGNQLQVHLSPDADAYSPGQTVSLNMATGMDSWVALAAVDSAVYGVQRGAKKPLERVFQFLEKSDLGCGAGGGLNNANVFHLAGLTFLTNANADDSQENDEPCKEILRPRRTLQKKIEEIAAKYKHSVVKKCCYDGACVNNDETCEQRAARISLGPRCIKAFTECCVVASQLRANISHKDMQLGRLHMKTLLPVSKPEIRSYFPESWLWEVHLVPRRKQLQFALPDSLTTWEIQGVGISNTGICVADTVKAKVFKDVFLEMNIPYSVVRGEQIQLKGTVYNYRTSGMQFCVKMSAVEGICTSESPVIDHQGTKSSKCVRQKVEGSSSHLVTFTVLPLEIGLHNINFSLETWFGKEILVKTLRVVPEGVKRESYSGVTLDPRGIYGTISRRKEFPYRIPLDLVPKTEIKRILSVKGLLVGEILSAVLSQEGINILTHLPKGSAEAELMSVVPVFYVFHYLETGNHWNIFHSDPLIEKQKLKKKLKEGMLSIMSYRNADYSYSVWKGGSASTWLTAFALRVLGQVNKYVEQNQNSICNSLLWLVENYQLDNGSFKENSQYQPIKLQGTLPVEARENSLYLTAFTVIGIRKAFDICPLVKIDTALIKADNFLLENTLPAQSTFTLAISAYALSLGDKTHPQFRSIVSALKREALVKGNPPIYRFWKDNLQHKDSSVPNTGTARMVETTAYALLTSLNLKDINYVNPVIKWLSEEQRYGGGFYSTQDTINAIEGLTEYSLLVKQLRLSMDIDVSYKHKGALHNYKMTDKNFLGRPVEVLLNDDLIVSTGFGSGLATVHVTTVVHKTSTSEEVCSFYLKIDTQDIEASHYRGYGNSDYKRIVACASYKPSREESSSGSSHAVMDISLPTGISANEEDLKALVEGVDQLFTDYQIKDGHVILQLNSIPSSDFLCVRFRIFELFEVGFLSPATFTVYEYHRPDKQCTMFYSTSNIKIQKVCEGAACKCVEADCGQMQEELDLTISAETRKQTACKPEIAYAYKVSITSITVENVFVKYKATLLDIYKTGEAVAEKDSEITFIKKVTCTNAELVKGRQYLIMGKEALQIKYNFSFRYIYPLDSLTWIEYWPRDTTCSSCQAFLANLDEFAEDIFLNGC

| Substance | inhibitory activity in RBC hemolysis assay compared with parent peptide [1] | other results |
| --- | --- | --- |
| TQDNRWEFPLRV [Peptide 13] | almost comparable activity | competition among phage clones and free peptides for binding to C5 (complement component C5; free peptide at 50, 10 and 1 μM): significant competition; specific binding to complement component C5 (complement component C5; phage panning / phage clone binding): specifically bound complement component C5; inhibition of hemolysis ([1]; 100 uM peptide): significant inhibition of hemolysis; C3a production (classical pathway; [3]): neither of these peptides produced an effect; C5a production (classical pathway; [3]): dose-dependent increase in the inhibition; SC5b-9 production (classical pathway; [3]): dose-dependent increase in the inhibition; C3a production (alternative pathway): no effect; C5a generation (alternative pathway): dose-dependent inhibition; SC5b-9 generation (alternative pathway): dose-dependent inhibition; C3a generation [2]: no observeable effect; C5a production [2]: inhibited; SC5b-9 production [2]: inhibited |
| Peptide 53: Peptide 50 with glutamic acid substituted for the aspartic acid at position 1 (ENRWEFPL; complement inhibitor) | appeared to increase the inhibitory activity | – |
| Peptide 55: Peptide 50 with arginine at position 3 changed to lysine (DNKWEFPL; complement inhibitor) | lowers the inhibiting activity | – |
| Peptide 64: Peptide 50 with leucine replacing the phenylalanine at X4 (DNRWELPL; complement inhibitor) | more severe losses | – |
| Peptide 91: Peptide 46 derivative with leucine at X1 (TALVRWEFPL; complement inhibitor) | almost comparable activity | – |
| 18: Peptide 7 with alanine substituted for a residue L on the amino-terminal side of the consensus sequence (SFNDALWRWEWP; complement inhibitor) [Peptide 18] | – | complement inhibiting activity (C5a and SC5b-9 production), alanine scan of Peptide 7 (classical pathway): slightly greater inhibitory activity |
| Peptide 90: Peptide 46 derivative with isoleucine at X1 (TAIVRWEFPL; complement inhibitor) | almost comparable activity | – |
| 120: Peptide 46 with a tri-peptide substituted for X1, third amino acid glutamic acid (TLEVRWEFPL; complement inhibitor) [Peptide 120] | enhanced the levels of inhibitory activity | – |
| Peptide 60: Peptide 50 with tryptophan replacing the phenylalanine at X4 (DNRWEWPL; complement inhibitor) | more severe losses | – |
| 19: Peptide 7 with alanine substituted for a residue L on the amino-terminal side of the consensus sequence (SFNDLAWRWEWP; complement inhibitor) [Peptide 19] | – | complement inhibiting activity (C5a and SC5b-9 production), alanine scan of Peptide 7 (classical pathway): slightly greater inhibitory activity |
| Peptide 83: Peptide 46 derivative with a glutamic acid at X1; listed in both the X2 and X1 series (AAEVRWEFPL; complement inhibitor) | highest level of inhibitory activity | – |
| 20: Peptide 7 with alanine substituted for residue W on the amino-terminal side of the consensus sequence (SFNDLLARWEWP; complement inhibitor) [Peptide 20] | – | complement inhibiting activity (C5a and SC5b-9 production), alanine scan of Peptide 7 (classical pathway): slightly greater inhibitory activity |
| Peptide 95: Peptide 46 derivative with proline at X1 (TAPVRWEEPL; complement inhibitor) | almost comparable activity | – |
| Peptide 54: Peptide 50 with asparagine substituted for the aspartic acid residue (NNRWEFPL; complement inhibitor) | little effect on the inhibitory activity | – |
| 115: Peptide 46 with a tri-peptide substituted for X1, third amino acid glutamic acid (LAEVRWEFPL; complement inhibitor) [Peptide 115] | enhanced the levels of inhibitory activity | – |
| Peptide 84: Peptide 46 derivative with a glutamic acid at X1 (TAEVRWEFPL; complement inhibitor) | highest level of inhibitory activity | inhibitory activity in RBC hemolysis assay compared with parent peptide ([1]; listed as SEQ ID NO 84): enhanced the levels of inhibitory activity |
| Peptide 50: eight-mer: Peptide 13 with two amino acids removed from both ends (DNRWEFPL; complement inhibitor) | – | original activity retained in RBC hemolysis assay ([1]; relative to Peptide 13): 100% |
| Peptide 61: Peptide 50 with tyrosine substituted for the phenylalanine at position 6 (DNRWEYPL; complement inhibitor) | minimal loss of activity | – |
| 119: Peptide 46 with a tri-peptide substituted for X1, third amino acid glutamic acid (TTEVRWEFPL; complement inhibitor) [Peptide 119] | enhanced the levels of inhibitory activity | – |
| 112: Peptide 46 with a tri-peptide substituted for X1, third amino acid glutamic acid (EAEVRWEFPL; complement inhibitor) [Peptide 112] | enhanced the levels of inhibitory activity | – |
| Peptide 56: Peptide 50 with arginine at position 3 changed to histidine (DNHWEFPL; complement inhibitor) | lowers the inhibiting activity | – |
| Peptide 46: 10-mer: Peptide 13 with the two residues removed from the carboxyl terminus (TQDNRWEFPL; complement inhibitor) | appears to increase the activity | – |
